Source: US20050277625A1, “Estriol and estetrol prodrugs” (priority 2004, published 2005)

What was measured:
[1] = system: uterus and vagina weight; assay: Interaction of estrogens with progesterone in uterus and vagina of ovariectomized guinea pigs; type: in vivo; settings: OVX guinea pigs, 7 days s.c., with 3.0 mg progesterone per animal per day
Source text: Adult guinea pigs were ovariectomized and treated for 2 weeks after this operation over 7 days with estradiol or estriol over a large dose range. […] The effects of this treatment on the genital organs was raised on the 8th test day.

[2] = system: uterus weight; assay: Estrogenic activity in ovariectomized rats, oral administration (uterus weight); type: in vivo, Wistar rats; settings: for Uterus Weight UVD (Uterus Doubling Dose vs. OVX): treatment days 1-3, sacrifice day 4
Method: (§1) Table 1 illustrates the estrogenic activity in the case of oral administration and liver toxicity (hepatic effects) based on data of selected compounds in in-vivo tests with rats.
(§2) Adult Wistar rats are ovariectomized and are brought into the test after a 14-day waiting period. The animals are then treated for over three days (days 1-3) and then sacrificed (day 4). Then, the organ weights are determined and estrogen-modulated factors of hepatic secretion in serum are determined, which in the rat are the increase of angiotensinogen and the drop in total cholesterol and HDL cholesterol.

[3] = system: angiotensinogen, total cholesterol and HDL cholesterol in serum; assay: Hepatic effects in ovariectomized rats (estrogen-modulated factors of hepatic secretion in serum); settings: for Angiotensin 1 ED50 (dose which produces an increase by 50% vs. OVX control) / HDL Cholesterol ED50 (dose which produces a drop by 50% vs. OVX control) / Total Cholesterol ED50 (dose which produces a drop by 50% vs. OVX control): oral, days 1-3, serum
Method: as §1, §2

[4] = system: erythrocytes; assay: Binding to erythrocytes: displacement of 14C-estradiol sulfamate; set-up: species or system Human; settings: for RBA to Erythrocytes: human blood, relative to estradiol-3-sulfamate = 100; for bonds to erythrocytes (in words): m-substituted compounds
Method: The SO2—NH2 group of the substances according to the invention can result in a concentration in erythrocytes by binding to carboanhydrases. The displacement of estradiol-3-sulfamate from the erythrocyte bond by test substances is measured.
Test preparation: Human blood is mixed with a mixture that consists of ^14C-labeled and unlabeled estradiol sulfamate. The erythrocytes are saturated at the selected working point, and the distribution in plasma/erythrocytes is 40:60. A second blood sample is mixed with a mixture that consists of ^14C-labeled estradiol sulfamate and unlabeled test substance. The relative binding affinity is calculated from the proportion of ^14C-labeled estradiol sulfamate in plasma: higher proportion=strong displacement of ^14C-estradiol sulfamate from the erythrocytes by the test substance=high binding affinity.

[5] = molecular target: Human Carboanhydrase I (Homo sapiens, UniProt P00915); assay: Inhibition of carboanhydrase I (CO2 hydration); type: biochemical; settings: read-out: CAI IC50
Sequence of Human Carboanhydrase I (P00915 whole entry): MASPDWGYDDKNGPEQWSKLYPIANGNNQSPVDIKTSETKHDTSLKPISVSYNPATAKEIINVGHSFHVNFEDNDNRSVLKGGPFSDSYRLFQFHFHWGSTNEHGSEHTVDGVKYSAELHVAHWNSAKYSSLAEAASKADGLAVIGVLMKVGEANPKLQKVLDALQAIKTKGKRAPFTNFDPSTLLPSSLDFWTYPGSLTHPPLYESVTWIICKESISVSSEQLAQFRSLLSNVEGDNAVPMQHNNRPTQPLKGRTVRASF
Method: Carboanhydrases catalyze the CO2 hydration.
Test preparation: A constant CO2 stream is directed by a buffer that was mixed with carboanhydrase I. The time that is required to reduce the pH within defined limits is a measuring parameter. This parameter reflects the formation of H2CO3 in the medium. IC50 inhibiting values are determined by test substances being pipetted into the test preparation.

[6] = female, Wistar, rat, in vivo, 3 days
[7] = rats, oral, compared with compound 10 or compound 1

Structure (SMILES) | uterotropic actions in combination with progesterone ([1]; uterus) | increase in weight of the vagina in combination with progesterone ([1]; vagina) | Uterus Weight UVD (Uterus Doubling Dose vs. OVX) ([2]; OVX rats, oral) [μg/T/T] | increase of the uterus weight (doubling) ([2]; OVX rats, estriol even at very high dosages) | Angiotensin 1 ED50 (dose which produces an increase by 50% vs. OVX control) ([3]; OVX rats) [μg/T/T] | HDL Cholesterol ED50 (dose which produces a drop by 50% vs. OVX control) ([3]; OVX rats) [μg/T/T] | Total Cholesterol ED50 (dose which produces a drop by 50% vs. OVX control) ([3]; OVX rats) [μg/T/T] | rel. hep. Akt. (relative hepatic activity vs. uterotropic activity), HDL Cholesterol ([3]; OVX rats, HDL cholesterol ED50 relative to UVD) | rel. hep. Akt. (relative hepatic activity vs. uterotropic activity), Angiotensin 1 ([3]; OVX rats, angiotensin 1 ED50 relative to UVD) | rel. hep. Akt. (relative hepatic activity vs. uterotropic activity), Total Cholesterol ([3]; OVX rats, total cholesterol ED50 relative to UVD) | RBA to Erythrocytes [4] | IC50 [5] [nM] | rel. hep. Akt. (relative hepatic activity vs. uterotropic activity), Angiotensin 1 [3, 6] | rel. hep. Akt. (relative hepatic activity vs. uterotropic activity), HDL Cholesterol [3, 6] | rel. hep. Akt. (relative hepatic activity vs. uterotropic activity), Total Cholesterol [3, 6] | bonds to erythrocytes (in words) [4] | estrogenic activity in the case of oral administration [2, 7] | oral bioavailability [2, 7]
C[C@]12CC[C@@H]3c4ccc(O)cc4CC[C@H]3[C@@H]1C[C@@H](O)[C@@H]2O [Estriol] | clearly enhanced | not enhanced or is not enhanced to the same extent | >1000 | did not bring about a doubling of the uterus weight | 7.6 | 110.7 | 79 | <0.1 | <0.008 | <0.08 |  |  |  |  |  |  |  | 
C[C@]12CC[C@@H]3c4ccc(O)cc4CC[C@H]3[C@@H]1C[C@@H](OC(=O)c1ccc(S(N)(=O)=O)cc1)[C@@H]2O [Compound 4, 3,17β-Dihydroxyestra-1,3,5(10)-trien-16α-yl 4′-sulfamoylbenzoate] |  |  |  |  |  |  |  |  |  |  | 2.6 |  |  |  |  |  |  | 
C[C@]12CC[C@@H]3c4ccc(O)cc4CC[C@H]3[C@@H]1C[C@@H](O)[C@@H]2OC(=O)c1ccc(S(N)(=O)=O)cc1 [Compound 1, 3,16α-Dihydroxyestra-1,3,5(10)-trien-17β-yl 4′-sulfamoylbenzoate] |  |  | 162.6 |  | 17.4 | 45.9 | 39.9 |  |  |  |  | 200 | 0.12 | 0.28 | 0.25 |  |  | 
C[C@]12CC[C@@H]3c4ccc(O)cc4CC[C@H]3[C@@H]1C[C@@H](OC(=O)c1cccc(S(N)(=O)=O)c1)[C@@H]2O [Compound 10, 3,17β-Dihydroxyestra-1,3,5(10)-trien-16α-yl 3′-sulfamoylbenzoate] |  |  | 378.2 |  | 5.7 | 18.6 | 10.7 |  |  |  | 0.4 | 450 | 0.015 | 0.49 | 0.028 | only very weak bonds were detected |  | 
C[C@]12CC[C@@H]3c4ccc(OS(N)(=O)=O)cc4CC[C@H]3[C@@H]1CC[C@@H]2O [Estradiol-3-sulfamate, reference compound] |  |  |  |  |  |  |  |  |  |  | 100 | 157 ± 10.6 |  |  |  |  |  | 
C[C@]12CC[C@@H]3c4ccc(O)cc4CC[C@H]3[C@@H]1C[C@@H](O)[C@@H]2OC(=O)c1cccc(S(N)(=O)=O)c1 [Compound 7, 3,16α-Dihydroxyestra-1,3,5(10)-trien-17β-yl 3′-sulfamoylbenzoate] |  |  | 137.5 |  | 8.9 | 6.0 | 4.8 |  |  |  | 0.5 | 600 | 0.06 | 0.04 | 0.03 | only very weak bonds were detected | higher estrogenic activity | higher
